Measurements published in patent publication EP2114888B1, “TRICYCLIC COMPOUNDS AND THEIR USE AS GLUCOCORTICOID RECEPTOR MODULATORS” (priority 2007, dated 2008).
pIC50: −log10 of the molar value.

Assays:
[1] = Oral dosing in portal vein-cannulated rats, portal vein plasma; format: in vivo; conditions: oral dosing 30 and 200 mg/kg, over a four-hour time period
[2] = Oral absorption profile, time to Cmax in dogs; conditions: dog, in vivo
[3] = Solubility and intrinsic dissolution; format: physicochemical
[4] = target: full-length glucocorticoid (GR) protein; test: Glucocorticoid receptor fluorescence polarization ligand binding (GRFP) assay; conditions: additional result (footnote a)
Excerpt: The glucocorticoid receptor fluorescence polarization ligand binding (GRFP) assay is used to evaluate direct binding of testing compounds to full-length glucocorticoid (GR) protein. Reagents for this assay are purchased from Invitrogen in a test kit. A fluorescent labeled GR ligand is used as a fluorescent tracer and test compounds compete with the fluorescent tracer for GR binding. The change in polarization value in the presence of test compounds is due to binding of test compounds to GR and is used to determine IC50 and relative binding affinity of test compounds for GR.

[5] = test system: IL-6; test: IL-1β-stimulated IL-6 production in A549 lung epithelial cells; format: cell-based, Human
Method: Human A549 lung epithelial cells (American Type Culture Collection, Rockville, MD) were cultured in Kaighn's F-12K medium with penicillin-streptomycin (10 U/mL) and 10% heat-inactivated fetal bovine serum (all from Invitrogen, Grand Island, NY). A549 cells were plated at a density of 30,000 cells/well in 96-well plates and incubated overnight at 37°C and with 5% CO2. The cells were serum-starved by replacing the growth medium with serum-free Kaighn's F-12K medium with penicillin-streptomycin (10 U/mL) and, again, incubating overnight at 37°C and with 5% CO2. On the third day, the medium was replaced with fresh serum-free medium and the cells were incubated with or without compound (vehicle was DMSO at 0.1 % maximum concentration) for approximately 1 hour and then stimulated with 1 ng/mL recombinant human IL-1β (R&D Systems, Minneapolis, MN) for 20 hours at 37°C and with 5% CO2. Cell supernatants were collected for determination of IL-6 levels using MSD (Meso Scale Discovery, Gaithersburg, MD) 96-well Single Spot plates as per the manufacturer's instructions. Plates were read with an MSD Sector Imager 6000. […] Percent inhibition for each compound concentration, relative to these controls, was calculated using Excel (Microsoft, Redmond, WA). IC50 values were generated using GraFit 5.0 data analysis software (Erithacus Software Ltd., Surrey, UK).

[6] = test system: Caco-2 cell monolayer
Excerpt: (§1) The Caco-2 cell monolayer is an in vitro tissue culture model of the intestinal epithelium. These cells are of human colonic origin and become polarized, fully differentiated enterocytes in 2-3 weeks. Once differentiated, these cells have tight junctions and express various biochemical processes such as active efflux transporters including P-glycoprotein (P-gp). With this model, it is possible to determine the apparent permeability (Papp) of a compound across the polarized Caco-2 cell monolayer.
(§2) An A→B Assay is performed with Caco-2 cell monolayers to determine compound Papp from A chamber to B chamber. This Papp is representative of luminal (gut) to serosal (blood) compound transport across intestinal epithelium that may be seen during intestinal absorption.

[7] = in vivo; conditions: rat, po
[8] = Oral absorption profile in rats
[9] = Caco-2 cell monolayer A→B permeability assay; conditions: human
Excerpt: as §1, §2

With `Cc1ncccc1NC(=O)c1ccc2c(c1)CC[C@@H]1C[C@@](OP(=O)(O)O)(C(F)(F)F)CC[C@@]21Cc1ccccc1` [Example 2, (2R,4αS,10αR)-4α-benzyl-7-((2-methylpyridin-3-yl)carbamoyl)-2-(trifluoromethyl)-1,2,3,4,4α,9,10,10α-octahydrophenanthren-2-yl dihydrogen phosphate] the “detection in portal vein plasma samples” value [1] was “detection of Example 1, but not Example 2”, the Tmax [2] was 48 min and the “solubility and intrinsic dissolution” value [3] was “enhanced solubility and intrinsic dissolution”. For the same compound, the pIC50 [4] was 7.38, the “IL-6 % Inhibition” value ([5]; A549 cells, additional result (footnote a)) was 80% and the inhibition ([5]; Homo sapiens, A549) was 60.2%. The pIC50 ([5]; Homo sapiens, A549 cells, additional result (footnote a)) was 7.77, the “Example 1 in apical and basolateral compartments” value [6] was “significant elevation of Example 1 in both the apical and basolateral compartments” and the AUC [7] was 1610 ng·h/mL. The “bioavailability F” value [8] was 59%, the Cmax ([8]; oral) was 590 ng/mL and the Papp A→B [9] was 1.15 ×10⁻⁶ cm/s.
